{"source": "patent US20070093673A1", "about": "“Boron-containing compounds, uses and preparation thereof” (priority 2005, published 2007)", "key": {"Pain and/or Inflammation": {"system": "Pain and/or Inflammation", "assay": "Tests on various subjects: cream applied to the inflamed skin area for pain and/or inflammation", "format": "in vivo, human", "parameters": "key to Pain Condition After Last Application: CD: complete disappearance of pain; RP: residual pain (i.e.: equivalent to mild pain intensity); key to Pain Intensity After Application: No pain: 0; Mild pain: +; Moderate pain: ++; Severe pain: +++ (i.e.: interference with sleep and/or day's activities)", "experimental": "Compound 1, and more particularly Composition 1, was tested on several subjects so as to verify its activity as anti-inflammatory agent and/or analgesic. As it can be seen from Table 1, test subjects having various inflammations or pain have been treated with Composition 1. In each case, a small amount of Composition 1, in the form of a cream, was applied to inflammated skin area by means of a short gentle rub.\nAll data were provided under testimony of all volunteers.\nM: male • a) Pain intensity rating: • No pain: 0 • Mild pain: + • Moderate pain: ++ • Severe pain: +++ (i.e.: interference with sleep and/or day's activities). • b) Pain condition after the last application of Compound 1. • CD: complete disappearance of pain. • RP: residual pain (i.e.: equivalent to mild pain intensity)."}, "[1]": {"assay": "solubility in water of Compound 1", "format": "physicochemical", "description": "The mass spectroscopy analysis (electrospray/scanning) using a Micromass quattra ll triple quadrupole mass spectrometer with a GC and HPLC interface, confirmed the previously illustrated formula for Compound 1. Analysis of Compound 1 was done by mass spectroscopy, positive mode, preparation of samples in 2% acetonitrile-98% methanol. […] The product observed was the following: B3C3H11O9 (223.5 g per mole). […] The purity of the obtained product was>98 % (confirmed by 500 MHz ^1H NMR analysis) and the solubility in water was at maximum 7% w/w, yielding a clear colorless solution.\nAn analysis of Compound 1, prepared by using metaboric acid and glycerol, was conducted under the same condition as for Compound 1 with boric acid and glycerol. […] The product observed was the following: B3C3H11O9 (223.5 g per mole). […] When compared to Compound 1 prepared from boric acid and glycerol, the purity and solubility of the obtained product were similar i.e. a purity of ≈98% with solubility in water at maximum of 7% w/w, yielding a colorless solution."}, "[2]": {"settings": "all four subjects with chronic diseases, after application"}}}
{"smiles": "CC(=O)Oc1ccccc1C(=O)O", "note": "[Aspirin®, acetylsalicylic acid, reference compound]", "values": [{"measurement": "gastric adverse effect that prompted discontinuation", "setting": "Pain and/or Inflammation; medications taken in the past by the volunteers, testimony", "result": "severe gastric burning sensation"}]}
{"smiles": "OB(O)OCC(COB(O)O)OB(O)O", "note": "[Compound 1]", "values": [{"measurement": "solubility in water", "setting": "[1]; Compound 1 prepared from boric acid and glycerol, clear colorless solution", "result": "≤ 7", "unit": "% w/w"}, {"measurement": "solubility in water", "setting": "[1]; Compound 1 prepared from metaboric acid and glycerol, colorless solution", "result": "≤ 7", "unit": "% w/w"}, {"measurement": "subjects with total disappearance of pain", "setting": "Pain and/or Inflammation; 30 minutes after application of the cream containing Compound 1", "result": "Four subjects out of six"}, {"measurement": "complete loss of stiffness", "setting": "Pain and/or Inflammation; [2]", "result": "within four four hours"}, {"measurement": "reduced sensation of stiffness", "setting": "Pain and/or Inflammation; [2]", "result": "within two hours"}, {"measurement": "time to complete relief of the pain after the application", "setting": "Pain and/or Inflammation; four subjects with chronic lower back pain, fibromyalgia or arthritis", "result": "approximately 30 minutes"}, {"measurement": "pain after last application, all subjects", "setting": "Pain and/or Inflammation; including three out of six who required a maximum of three applications", "result": "complete disappearance of pain for all subjects"}, {"measurement": "time to relapse of pain", "setting": "Pain and/or Inflammation; one out of four subjects with chronic disease, who required three applications", "result": "approximately 12 hours"}, {"measurement": "pain intensity, all volunteers", "setting": "Pain and/or Inflammation; six volunteers, topical cream", "result": "reduced pain intensity for all volunteers"}, {"measurement": "loss of swelling at joints and of tenderness sensation", "setting": "Pain and/or Inflammation; subjects with fibromyalgia and arthritis", "result": "approximately the same time-frames as reported earlier for stiffness"}, {"measurement": "time to complete disappearance of pain", "setting": "Pain and/or Inflammation; two subjects with an injury to a leg", "result": "within three days"}, {"measurement": "effect compared with medications taken in the past for the same chronic afflictions", "setting": "Pain and/or Inflammation; versus acetaminophen/Tylenol, acetaminophen-codeine/Empracet or acetylsalicylic acid/Aspirin, testimony of volunteers", "result": "higher than medications taken in the past"}, {"measurement": "Pain Condition After Last Application", "setting": "Pain and/or Inflammation; volunteer D-123-S, injury, leg, 3 applications", "result": "CD"}, {"measurement": "Pain Intensity After Application", "setting": "Pain and/or Inflammation; volunteer D-123-S, injury, leg, before application ++, 3 applications, topical cream", "result": "+"}, {"measurement": "Time to Pain Relief", "setting": "Pain and/or Inflammation; volunteer D-123-S, injury, leg, before application ++, topical cream", "result": 0.5, "unit": "h"}, {"measurement": "Pain Condition After Last Application", "setting": "Pain and/or Inflammation; volunteer D-321-J, fibromyalgia, hands, 1 application", "result": "CD*"}, {"measurement": "Pain Intensity After Application", "setting": "Pain and/or Inflammation; volunteer D-321-J, fibromyalgia, hands, before application +++, 1 application, topical cream", "result": 0}, {"measurement": "Time to Pain Relief", "setting": "Pain and/or Inflammation; volunteer D-321-J, fibromyalgia, hands, before application +++, topical cream", "result": 0.5, "unit": "h"}, {"measurement": "Pain Condition After Last Application", "setting": "Pain and/or Inflammation; volunteer D-457-D, fibromyalgia, hands & feet, 1 application", "result": "CD*"}, {"measurement": "Pain Intensity After Application", "setting": "Pain and/or Inflammation; volunteer D-457-D, fibromyalgia, hands & feet, before application ++, 1 application, topical cream", "result": 0}, {"measurement": "Time to Pain Relief", "setting": "Pain and/or Inflammation; volunteer D-457-D, fibromyalgia, hands & feet, before application ++, topical cream", "result": 0.5, "unit": "h"}, {"measurement": "Pain Condition After Last Application", "setting": "Pain and/or Inflammation; volunteer D-633-J, lower back pain, musculoskeletal, 1 application", "result": "CD*"}, {"measurement": "Time to Pain Relief", "setting": "Pain and/or Inflammation; volunteer D-633-J, lower back pain, musculoskeletal, before application ++, topical cream", "result": 0.5, "unit": "h"}, {"measurement": "Pain Intensity After Application", "setting": "Pain and/or Inflammation; volunteer D-633-J, lower back pain, musculoskeletal, lower back, central, before application ++, 1 application, topical cream", "result": 0}, {"measurement": "Pain Condition After Last Application", "setting": "Pain and/or Inflammation; volunteer D-701, arthritis, wrists, 3 applications", "result": "CD"}, {"measurement": "Time to Pain Relief", "setting": "Pain and/or Inflammation; volunteer D-701, arthritis, wrists, before application ++, topical cream", "result": 0.5, "unit": "h"}, {"measurement": "Pain Intensity After Application", "setting": "Pain and/or Inflammation; volunteer D-942-L, injury, leg, before application +++, 3 applications, topical cream", "result": "++"}, {"measurement": "Pain Condition After Last Application", "setting": "Pain and/or Inflammation; volunteer D-942-L, injury, leg, 3 applications", "result": "CD"}, {"measurement": "Time to Pain Relief", "setting": "Pain and/or Inflammation; volunteer D-942-L, injury, leg, before application +++, topical cream", "result": 8.0, "unit": "h"}]}
